This is an account of results in US20250154686A1, “COMPOUND LIBRARY” (CHUGAI SEIYAKU KABUSHIKI KAISHA, priority 2021, published 2025).

This experiment addresses T1, Bcl-2 protein (Recombinant Human Bcl-2 Protein) (Homo sapiens, UniProt P10415).
T1 construct: purchased Novus Biologicals NBP2-34889
In words: AS-MS evaluation of binding of the Example 4 mixture library (1200 compounds/well) to Bcl-2, ASMS ratio (%). Here is the method:
DMSO solutions (prepared into approximately 0.58 mM based on calculation from the average molecular weight of each mixture) of 12 types of mixtures that could each contain 100 compounds, i.e., mixAI-B4J-01, mixAI-B1M-01, mixAI-B1K-01, mixAI-BIO-01, mixAI-B1A-01, mixAI-B3A-01, mixAI-B21-01, mixAI-B2L-01, mixAI-B2N-01, mixAI-B2A-01, mixAI-B2Q-01, and mixAI-B2R-01, shown in Table AI-03-B4J-01, Table AI-03-B1M-01, Table AI-03-B1K-01, Table AI-03-B10-01, Table AI-03-B1A-01, Table AI-03-B3A-01, Table AI-03-B21-01, Table AI-03-B2L-01, Table AI-03-B2N-01, Table AI-03-B2A-01, Table AI-03-B2Q-01, and Table AI-03-B2R-01 described in Example 4, were respectively dispensed to a total of 12 wells of MICROPLATE, 96-well, PP, V-BOTTOM (Greiner Bio-One International GmbH, 651201). 70 nL each from the 12 wells was collected into any one well using LABCYTE ECHO® 555 acoustic dispensing system (Beckman Coulter, Inc.) to prepare a sample solution in a mixed state of 1200 compounds (the presence of 1152 compounds was already identified when the mixtures were prepared in Example 4). Further, Bcl-2 protein (Novus Biologicals, NBP2-34889, Recombinant Human Bcl-2 Protein, Lot E60145051) (19.2 μL) prepared at 20.9 μM in advance using a Tris-HCl buffer (25 mM Tris-HCl, pH 7.4, 150 mM NaCl, 0.025% Tween-20, and 1 mM DTT) was added to the well containing the dispensed 1200 compounds (the presence of 1152 compounds was already identified when the mixtures were prepared in Example 4) (final compound concentration: 20 nM, final Bcl-2 concentration: 20 μM), and the plate was incubated at 23° C. for 1 hour in the dark. Subsequently, 200 μL of an assay buffer (25 mM Tris-HCl, pH 7.4, 150 mM NaCl, 0.025% Tween-20, and 1 mM DTT) was centrifuged three times at 2000×G at 4° C. for 2 minutes using 96-well MacroSpin column, P-2 Material (Harvard Bioscience, Inc., 74-5655) that had been allowed to swell to condition the 96-well MacroSpin column. Subsequently, 20 μL of the sample thus incubated was added to the 96-well MacroSpin column, P-2 Material after the completion of conditioning, and SEC treatment was performed by centrifugation at 2000×G for 2 minutes. 32 μL of a 1:1 mixed solution of acetonitrile and methanol (LC/MS grade, FUJIFILM Wako Pure Chemical Corp.) was added to a flow-through liquid from SEC, and the mixture was centrifuged at 1800×G at 4° C. for 5 minutes. The supernatant was used as analysis sample ASMS (A). By a similar operation, a sample prepared at 1200 compounds/well and supplemented with only a Tris-HCl buffer containing no Bcl-2 protein was incubated under the same conditions as above, and the same organic solvent as above was added thereto without 96-well MacroSpin column treatment. A supernatant obtained by a centrifugation operation was used as STD (B). Next, by a similar operation, a sample prepared at 1200 compounds/well and supplemented with only a Tris-HCl buffer containing no Bcl-2 protein was incubated under the same conditions as above and treated with 96-well MacroSpin column in the same manner as above, and the same organic solvent as above was added thereto. A supernatant obtained by a centrifugation operation was used as BK (C). These samples were measured by reverse-phase LC/MS.
Then, the samples A, B and C were analyzed for the 1200 compounds using TraceFinder 5.1 (Thermo Fisher Scientific Inc.) and CHANCE Software (in-house), and an ASMS ratio (%) was calculated according to the following expression.
Although m/z of the MS peaks was confirmed down to four decimal places, 0 at the decimal level may be omitted in the description in Table AJ-01. For example, “587.0000” is also referred to as “587”, “587.1000” is also referred to as “587.1”, “587.1200” is also referred to as “587.12”, and “587.1230” is also referred to as “587.123”.

Setting [1] is: replicate n = 1, mixture library, value belongs to the MS peak assigned to the compound.
The mark [2] stands for this setting: replicate n = 2, mixture library, value belongs to the MS peak assigned to the compound.
The mark [3] stands for this setting: AS-MS, mixture of 1200 compounds/well, Bcl-2 protein, replicate n = 1.
The mark [4] stands for this setting: AS-MS, Example 4 mixture library, Bcl-2, replicate n = 1.
The mark [5] stands for this setting: AS-MS, Example 4 mixture library, Bcl-2, replicate n = 2.
Where [6] appears, read: AS-MS, mixture of 1200 compounds/well, Bcl-2 protein, replicate n = 2.

T1 sequence (P10415 whole entry): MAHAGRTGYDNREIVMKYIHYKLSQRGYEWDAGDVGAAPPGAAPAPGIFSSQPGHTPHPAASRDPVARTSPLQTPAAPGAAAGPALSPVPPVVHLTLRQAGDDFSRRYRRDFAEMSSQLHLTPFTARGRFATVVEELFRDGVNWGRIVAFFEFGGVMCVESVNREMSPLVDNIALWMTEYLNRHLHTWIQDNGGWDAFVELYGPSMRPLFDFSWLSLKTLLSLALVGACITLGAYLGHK

For the compound `CCOc1cncc(-c2ccc(C(C)N3CCN(c4ccc(C(=O)NS(C)(=O)=O)cc4)CC3)cc2)c1` (centres unmarked) [Compound B2I098-01, 4-[4-[1-[4-(5-Ethoxypyridin-3-yl)phenyl]ethyl]piperazin-1-yl]-N-methylsulfonylbenzamide], the “ASMS ratio (%) n = 1” value under setting [1] turned out to be 0.0%. The “ASMS ratio (%) n = 2” value under setting [2] came to 0.0%. As for “4-[4-[[4-(3-Ethoxyphenyl)-3-fluorophenyl]methyl]piperazin-1-yl]-N-propylbenzamide [Compound B1M079-01]”, under setting [3], the “ASMS ratio (%) n = 1” value was determined as 8.1%. Take `CCOc1cccc(C#Cc2cncc(C(=O)N3CCN(c4ccc(C(=O)NS(=O)(=O)CCC(F)(F)F)nn4)CC3)c2)c1` [Compound B2N009-01, 6-[4-[5-[2-(3-Ethoxyphenyl)ethynyl]pyridine-3-carbonyl]piperazin-1-yl]-N-(3,3,3-trifluoropropylsulfonyl)pyridazine-3-carboxamide]: the “ASMS ratio (%) n = 1” value under setting [4] is given as 0.0%. Moreover, the “ASMS ratio (%) n = 2” value under setting [5] is on record as −0.4%. `CCOc1cncc(-c2ccc(C(=O)N3CCN(c4ccc(C(=O)NS(=O)(=O)CCC(F)(F)F)nn4)CC3)c3ccccc23)c1` [Compound B2N014-01, 6-[4-[4-(5-Ethoxypyridin-3-yl)naphthalene-1-carbonyl]piperazin-1-yl]-N-(3,3,3-trifluoropropylsulfonyl)pyridazine-3-carboxamide]: under setting [4], the “ASMS ratio (%) n = 1” value was found to be 0.0%. The “ASMS ratio (%) n = 2” value under setting [5] is given as 0.0%.

Turning to `CCCNC(=O)c1ccc(N2CCN(C(=O)c3ccc(-c4cncc(OCC)c4)c(F)c3)CC2)nn1` [Compound B1M006-01], the “ASMS ratio (%) n = 1” value under setting [3] is recorded as 0.0%. Under setting [6], the “ASMS ratio (%) n = 2” value came to 0.0%.

`CCOc1cncc(C#Cc2cc(C(=O)N3CCN(c4ccc(C(=O)NS(=O)(=O)c5ccc(NCCSc6ccccc6)c(C(F)(F)F)c5)cc4)CC3)cc(C(F)(F)F)c2)c1` [Compound B2R042-01, 4-[4-[3-[2-(5-Ethoxypyridin-3-yl)ethynyl]-5-(trifluoromethyl)benzoyl]piperazin-1-yl]-N-[4-(2-phenylsulfanylethylamino)-3-(trifluoromethyl)phenyl]sulfonylbenzamide]: the “ASMS ratio (%) n = 1” value under setting [4] amounted to 3.4%. Moreover, the “ASMS ratio (%) n = 2” value under setting [5] turned out to be 6.0%. Take `CCOc1cccc(-c2cc(OC)c(CN3CCN(c4ccc(C(=O)NS(=O)(=O)C(C)(C)C)cc4)CC3)c(OC)c2)c1` [Compound B2L059-01, N-tert-Butylsulfonyl-4-[4-[[4-(3-ethoxyphenyl)-2,6-dimethoxyphenyl]methyl]piperazin-1-yl]benzamide]: the “ASMS ratio (%) n = 1” value under setting [1] came out at 0.0%. In addition, the “ASMS ratio (%) n = 2” value under setting [2] was 0.0%. For the compound `CCOc1cccc(-c2cc(C(=O)N3CCN(c4ccc(C(=O)NS(=O)(=O)c5ccc(NCCSc6ccccc6)c(C(F)(F)F)c5)cc4)CC3)cc(C(C)(C)C)c2)c1` [Compound B2R037-01, 4-[4-[3-tert-Butyl-5-(3-ethoxyphenyl)benzoyl]piperazin-1-yl]-N-[4-(2-phenylsulfanylethylamino)-3-(trifluoromethyl)phenyl]sulfonylbenzamide], the “ASMS ratio (%) n = 1” value under setting [4] is listed as 6.3%. Besides, under setting [5], the “ASMS ratio (%) n = 2” value was −7.0%.

As to `CCOc1cccc(-c2cc(CN3CCN(c4ccc(C(=O)NCC56CC7CC(CC(C7)C5)C6)nn4)CC3)cc(OCC)c2)c1` [Compound B1A081-01, N-(1-Adamantylmethyl)-6-[4-[[3-ethoxy-5-(3-ethoxyphenyl)phenyl]methyl]piperazin-1-yl]pyridazine-3-carboxamide], the “ASMS ratio (%) n = 2” value (mixture library of 1200 compounds/well, Bcl-2 protein, replicate n = 2, compounds assigned by expected m/z) is recorded as −5. %. For `CCOc1cncc(-c2ccccc2CN2CCN(c3ccc(C(=O)NS(C)(=O)=O)cc3)CC2)c1` [Compound B2I046-01, 4-[4-[[2-(5-Ethoxypyridin-3-yl)phenyl]methyl]piperazin-1-yl]-N-methylsulfonylbenzamide], under setting [1], the “ASMS ratio (%) n = 1” value is −0.6%. Further, the “ASMS ratio (%) n = 2” value under setting [2] is on record as 1.5%.

Take `CCCNC(=O)c1ccc(N2CCN(C(=O)c3cc(-c4cccc(OCC)c4)cc(C(C)(C)C)c3)CC2)nn1` [Compound B1M015-01]: the “ASMS ratio (%) n = 1” value under setting [3] was −2.4%. Also, the “ASMS ratio (%) n = 2” value under setting [6] is on record as −3.0%. For `CCOc1cccc(-c2cc(OC)c(CN3CCN(c4ccc(C(=O)N(CC)CC)cc4)CC3)c(OC)c2)c1` [Compound B4J059-01, 4-[4-[[4-(3-Ethoxyphenyl)-2,6-dimethoxyphenyl]methyl]piperazin-1-yl]-N,N-diethylbenzamide], the “ASMS ratio (%) n = 1” value (Example 4 mixture library, 1200 compounds/well, Bcl-2 protein, replicate n = 1, value belongs to the MS peak assignable to the compound) is −0.1%. Further, under “Example 4 mixture library, 1200 compounds/well, Bcl-2 protein, replicate n = 2, value belongs to the MS peak assignable to the compound”, the “ASMS ratio (%) n = 2” value is on record as −6.0%. For `CCCNC(=O)c1ccc(N2CCN(Cc3ccc(-c4cccc(OCC)c4)c(F)c3)CC2)nn1` [Compound B1M077-01], the “ASMS ratio (%) n = 1” value under setting [3] was −0.7%. Also, the “ASMS ratio (%) n = 2” value under setting [6] is recorded as 3.1%. `CCOc1cncc(C#Cc2cncc(C(=O)N3CCN(c4ccc(C(=O)NS(=O)(=O)C(C)(C)C)nn4)CC3)c2)c1` [Compound B2L010-01]: the “ASMS ratio (%) n = 1” value under setting [1] stood at 0.0%. Further, the “ASMS ratio (%) n = 2” value under setting [2] was determined as 0.0%. `CCOc1cncc(-c2ccc(CN3CCN(c4ccc(C(=O)NS(C)(=O)=O)nn4)CC3)c(OC)c2)c1` [Compound B2I080-01, 6-[4-[[4-(5-Ethoxypyridin-3-yl)-2-methoxyphenyl]methyl]piperazin-1-yl]-N-methylsulfonylpyridazine-3-carboxamide]: the “ASMS ratio (%) n = 1” value under setting [1] is listed as 0.0%. In the case of `CCOc1cncc(-c2cc(CN3CCN(c4ccc(C(=O)NS(C)(=O)=O)nn4)CC3)cc(C(F)(F)F)c2)c1` [Compound B2I088-01, 6-[4-[[3-(5-Ethoxypyridin-3-yl)-5-(trifluoromethyl)phenyl]methyl]piperazin-1-yl]-N-methylsulfonylpyridazine-3-carboxamide], the “ASMS ratio (%) n = 1” value under setting [1] stood at 0.0%. Moreover, the “ASMS ratio (%) n = 2” value under setting [2] is reported as 0.0%. Regarding `CCCNC(=O)c1ccc(N2CCN(C(C)c3ccc(-c4cncc(OCC)c4)cc3)CC2)cc1` (centres unmarked) [Compound B1M098-01], under setting [3], the “ASMS ratio (%) n = 1” value is 0.9%. Moreover, under setting [6], the “ASMS ratio (%) n = 2” value is given as 0.3%. `CCOc1cccc(-c2ccc(CN3CCN(c4ccc(C(=O)NS(=O)(=O)c5ccc(NCCSc6ccccc6)c(C(F)(F)F)c5)nn4)CC3)cc2F)c1` [Compound B2R077-01, 6-[4-[[4-(3-Ethoxyphenyl)-3-fluorophenyl]methyl]piperazin-1-yl]-N-[4-(2-phenylsulfanylethylamino)-3-(trifluoromethyl)phenyl]sulfonylpyridazine-3-carboxamide]: the “ASMS ratio (%) n = 1” value under setting [4] is listed as 0.0%. Besides, the “ASMS ratio (%) n = 2” value under setting [5] worked out at 0.0%. As for `CCCNC(=O)c1ccc(N2CCN(Cc3ccc(-c4cccc(OCC)c4)c(C)c3)CC2)nn1` [Compound B1M073-01], the “ASMS ratio (%) n = 1” value under setting [3] was found to be 0.4%. Moreover, the “ASMS ratio (%) n = 2” value under setting [6] was −0.5%.
